Source: patent US7105695B2, “Synthesis of combretastatin A-2 prodrugs” (priority 2001, dated 2006)
≈ marks a conversion by molar mass, not a printed value. Like-named read-outs stand apart in the source and are kept apart here.

Experiments:
mitosis = details: compared with the Z-isomer (1a); cited from earlier work
BXPC-3 = assay: Human cancer cell line growth inhibition, pancreas BXPC-3; type: cell-based; details: BXPC-3 human cancer cell line
MCF-7 = assay: Human cancer cell line growth inhibition, breast MCF-7; type: cell-based; details: MCF-7 human cancer cell line
SF5268 = assay: Human cancer cell line growth inhibition, CNS gliob SF5268; type: cell-based
NCI-H460 = assay: Human cancer cell line growth inhibition, lung-NSC NCI-H460; type: cell-based
KM20L2 = assay: Human cancer cell line growth inhibition, colon KM20L2; type: cell-based
DU-145 = assay: Human cancer cell line growth inhibition, prostate DU-145; type: cell-based; details: DU-145 human cancer cell line
NCI 60-cell screen = assay: NCI 60-cell screen; type: cell-based, human; details: mean ± SE, read-out: mean-panel GI50
Neisseria gonorrhoeae = assay: Broth microdilution susceptibility assay, Neisseria gonorrhoeae; type: cell-based
Source text: (§1) Compounds were screened against the bacteria Stenotrophomonas maltophilia, Micrococcus luteus, Staphylococcus aureus, Escherichia coli, Enterobacter cloacae, Enterococcus faecalis, Streptococcus pneumoniae, Neisseria gonorrhoeae, and the fungi Candida albicans and Cryptococcus neoformans, according to established broth microdilution susceptibility assays (NCCLS approved standard M7-A4, 1997; NCCLS approved standard M27-A, 1997). The minimum inhibitory concentration was defined as the lowest concentration of compound that inhibited all visible growth of the test organism (optically clear). Assays were repeated on separate days.

[1] = 25° C.
Cryptococcus neoformans = assay: Broth microdilution susceptibility assay, Cryptococcus neoformans; type: cell-based; details: read-out: Minimum inhibitory concentration
Source text: as §1

Streptococcus pneumoniae = assay: Broth microdilution susceptibility assay, Streptococcus pneumoniae; type: cell-based; details: read-out: Minimum inhibitory concentration
Source text: as §1

Micrococcus luteus = assay: Broth microdilution susceptibility assay, Micrococcus luteus; type: cell-based; details: read-out: Minimum inhibitory concentration
Source text: as §1

bacteria and fungi panel = assay: Broth microdilution screen, whole panel of bacteria and fungi; type: cell-based; details: among the compounds screened, Table III
Source text: as §1

physchem = details: 25 °C, water

Molecule: COc1ccc(C=Cc2cc(OC)c3c(c2)OCO3)cc1O (single isomer, unassigned) [E-isomer of combretastatin A-2]
- antimitotic activity (mitosis): considerably less antimitotic activity

Molecule: Sodium combretastatin A-2 3′-O-phosphate [Compound 2a]
- GI50 Pancreas BXPC-3 (BXPC-3): 2.1 µg/mL
- GI50 Breast MCF-7 (MCF-7): 0.045 µg/mL
- GI50 CNSGliob SF5268 (SF5268): 0.042 µg/mL
- GI50 Lung-NSC NCI-H460 (NCI-H460): 0.41 µg/mL
- GI50 Colon KM20L2 (KM20L2): 3.8 µg/mL
- GI50 Prostrate DU-145 (DU-145): 0.053 µg/mL
- GI50 (NCI 60-cell screen): 165 ± 30.7 nM
- Minimum inhibitory concentration (Neisseria gonorrhoeae): 8 µg/mL
- Solubility in water [1]: 18000 µg/mL

Molecule: COc1ccc(/C=C\c2cc(OC)c3c(c2)OCO3)cc1O [Compound 1a, Combretastatin A-2]
- GI50 (BXPC-3): 0.014 µg/mL (≈ 0.0466 µM)
- GI50 (MCF-7; MCF7): 0.0042 µg/mL (≈ 0.014 µM)
- GI50 (SF5268; read-out: GI50 CNSGliob SF5268): 0.0083 µg/mL (≈ 0.0276 µM)
- GI50 (NCI-H460): 0.043 µg/mL (≈ 0.143 µM)
- GI50 (KM20L2; KM-20L2): 0.47 µg/mL (≈ 1.57 µM)
- GI50 (DU-145; read-out: GI50 Prostrate DU-145): 0.0054 µg/mL (≈ 0.018 µM)
- GI50 (NCI 60-cell screen; Homo sapiens): 83.3 ± 17.3 nM
- MIC (Cryptococcus neoformans): 64 µg/mL (≈ 213 µM)
- MIC (Streptococcus pneumoniae): 64 µg/mL (≈ 213 µM)
- MIC (Micrococcus luteus): 64 µg/mL (≈ 213 µM)
- MIC (Neisseria gonorrhoeae; read-out: Minimum inhibitory concentration): 32 µg/mL (≈ 107 µM)
- antimicrobial spectrum (bacteria and fungi panel): broadest antimicrobial spectra
- Solubility in water [1]: <1000 µg/mL
- solubility (physchem): < 1000 µg/mL
